Converted amounts (≈) assume the structure as drawn.
Columns and labels:
[1] = tested on: ANKA strain of P. berghei; assay: single dose STI in vivo screen in infected mice; parameters: species or system Plasmodium berghei; conditions: for Activity (%) po / Activity (%) sc / Activity (%) 3 mg/kg SSV po / Activity (%) 10 mg/kg SSV po / Activity (%) SSVpo: percent reduction in parasitemia day 3 post-infection; for Activity (%) po / Survival (days) po: single 10 mg/kg po in 3% ethanol and 7% Tween 80; for Activity (%) po / Activity (%) sc / Activity (%) SSVpo: mice; for Activity (%) sc / Survival (days) sc: single 10 mg/kg sc in 3% ethanol and 7% Tween 80; for Survival (days) po / Survival (days) sc / Survival (days) SSVpo: untreated control 5.6 ± 0.3; for Activity (%) 3 mg/kg SSV po: single 3 mg/kg po in SSV; for Activity (%) 10 mg/kg SSV po / Survival (days) 10 mg/kg SSV po: single 10 mg/kg po in SSV; for Activity (%) SSVpo: single po dose in standard suspending vehicle (SSV); for Survival (days) SSVpo: single po dose in SSV
Method in brief: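 Groups of 3-5 Moro SPF or NMRI mice infected with the ANKA strain of P. berghei received a single dose of trioxolane on day one post-infection. The compound was given in 3% ethanol and 7% Tween 80 or in SSV (0.5% w/v CMC, 0.5% v/v benzyl alcohol, 0.4% v/v Tween 80, 0.9% w/v sodium chloride in water). Antimalarial activity was scored as percent reduction in parasitemia on day three and as survival time versus untreated controls. Survival to day 30 counted as cure.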

[2] = tested on: P. falciparum NF54 strain (sensitive to standard antimalarials); assay: semiautomated microdilution assay, [3H]-hypoxanthine incorporation, NF54 strain; type: cell-based, Plasmodium falciparum; conditions: for IC50 (ng/ml) NF54: NF54 strain, 72 h incubation; for IC50: Plasmodium falciparum, NF54, 72 h, read-out: IC50 (ng/ml) NF54
Method in brief: (§1)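 Asynchronous stock cultures → intraerythrocytic forms; semiautomated microdilution; IC50 by logit regression.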

[3] = tested on: P. falciparum K1 strain (Thailand resistant to chloroquine); assay: semiautomated microdilution assay, [3H]-hypoxanthine incorporation, K1 strain; type: cell-based, Plasmodium falciparum; conditions: for IC50 (ng/ml) K1: K1 strain, 72 h incubation; for IC50: Plasmodium falciparum, K1, 72 h, read-out: IC50 (ng/ml) K1
Method in brief: as §1

| SMILES | Activity (%) po [1] | Activity (%) sc [1] | Survival (days) po [1] | Survival (days) sc [1] | IC50 (ng/ml) NF54 [2] | IC50 (ng/ml) K1 [3] | Activity (%) 3 mg/kg SSV po [1] | Activity (%) 10 mg/kg SSV po [1] | Survival (days) 10 mg/kg SSV po [1] | Activity (%) SSVpo [1] | Survival (days) SSVpo [1] | IC50 [2] | IC50 [3] |
| --- | --- | --- | --- | --- | --- | --- | --- | --- | --- | --- | --- | --- | --- |
| COc1ccc(S(=O)(=O)N2CCC3(CC2)OOC2(O3)C3CC4CC(C3)CC2C4)cc1 (stereo not shown) [OZ59] | 51% | 99.95% | 6.0 days | 10.0 days | 1.3 ng/mL (≈ 2.98 nM) | 1.4 ng/mL (≈ 3.21 nM) | – | – | – | – | – | – | – |
| NC1(C(=O)NC[C@H]2CC[C@]3(CC2)OO[C@]2(O3)C3CC4CC(C3)CC2C4)CCCCC1 [OZ333] | – | – | – | – | 0.44 ng/mL (≈ 1.05 nM) | 0.24 ng/mL (≈ 0.573 nM) | 96% | 99.86% | 9.2 days | – | – | – | – |
| CCOC(=O)N1C2CCC1CC1(C2)OOC2(O1)C1CC3CC(C1)CC2C3 (stereo not shown) [OZ110] | 50% | 97.97% | 6.7 days | 7.7 days | 2.1 ng/mL (≈ 5.78 nM) | 5.3 ng/mL (≈ 14.6 nM) | – | – | – | 0% | 5.3 days | – | – |
| COC(=O)c1ccc(C2(c3ccccc3)OOC3(O2)C2CC4CC(C2)CC3C4)cc1 (stereo not shown) [OZ138] | 0% | 7% | 5.7 days | 6.3 days | 19 ng/mL (≈ 46.7 nM) | 10 ng/mL (≈ 24.6 nM) | – | – | – | 5% | 6.3 days | – | – |
| O=S(=O)(c1ccc(F)cc1)N1CCC2(CC1)OOC1(O2)C2CC3CC(C2)CC1C3 (stereo not shown) [OZ86] | 77% | 99.9% | 6.7 days | 11.3 days | 2.0 ng/mL (≈ 4.72 nM) | 0.80 ng/mL (≈ 1.89 nM) | – | – | – | – | – | – | – |
| CC(C)(C)NC(=O)N1CCC2(CC1)OOC1(O2)C2CC3CC(C2)CC1C3 (stereo not shown) [OZ143] | 48% | 99.85% | 6.7 days | 9.7 days | 1.8 ng/mL (≈ 4.94 nM) | 0.98 ng/mL (≈ 2.69 nM) | – | – | – | 44% | 6.7 days | – | – |
| CCS(=O)(=O)CCN1CCC2(CC1)OOC1(O2)C2CC3CC(C2)CC1C3 (stereo not shown) [OZ200] | 81% | 92% | 7.0 days | 8.0 days | 2.9 ng/mL (≈ 7.52 nM) | 1.0 ng/mL (≈ 2.59 nM) | – | – | – | 78% | 7.3 days | – | – |
| Fc1ccc(C2(c3ccc(F)cc3)OOC3(CCC(c4ccccc4)CC3)O2)cc1 (stereo not shown) [OZ66] | 0/NA/0% | 0/NA/0% | 5.3 days | 5.7 days | 36 ng/mL (≈ 88.1 nM) | 44 ng/mL (≈ 108 nM) | – | – | – | – | – | – | – |
| OCCC1CCC2(CC1)OOC1(O2)C2CC3CC(C2)CC1C3 (stereo not shown) [OZ89] | 94% | 99.8% | 7.3 days | 8.7 days | – | – | – | – | – | 89% | 6.7 days | 0.75 ng/mL (≈ 2.43 nM) | 0.3 ng/mL (≈ 0.973 nM) |
| OC1CCC2(CC1)OOC1(O2)C2CC3CC(C2)CC1C3 (stereo not shown) [OZ32] | 79% | 91% | 6.7 days | 8.7 days | – | – | – | – | – | 93% | 7.0 days | 0.51 ng/mL (≈ 1.82 nM) | 0.25 ng/mL (≈ 0.892 nM) |
| COC(=O)c1cncn1C[C@H]1CC[C@]2(CC1)OOC1(O2)C2CC3CC(C2)CC1C3 (stereo partly shown) [OZ223] | 89% | 99.57% | 7.3 days | 12.0 days | > 10 ng/mL | 4.0 ng/mL (≈ 9.94 nM) | – | – | – | 79% | 6.3 days | – | – |
| NC(=O)C[C@H]1CC[C@]2(CC1)OOC1(O2)C2CC3CC(C2)CC1C3 (stereo partly shown) [OZ243] | 87% | 70% | 7.3 days | 6.3 days | 1.1 ng/mL (≈ 3.42 nM) | 0.91 ng/mL (≈ 2.83 nM) | – | – | – | 97% | 8.7 days | – | – |
| Fc1c(F)c(F)c(C2(c3c(F)c(F)c(F)c(F)c3F)OOC3(O2)C2CC4CC(C2)CC3C4)c(F)c1F (stereo not shown) [OZ45] | 15% | 16% | 6.0 days | 5.0 days | 27 ng/mL (≈ 51.1 nM) | 17 ng/mL (≈ 32.2 nM) | – | – | – | – | – | – | – |
| NC(=O)CN(CC(N)=O)C[C@H]1CC[C@]2(CC1)OOC1(O2)C2CC3CC(C2)CC1C3 (stereo partly shown) [OZ236] | 89% | 98.61% | 6.3 days | 7.7 days | 2.0/2.0 ng/ml | 2.0/2.0 ng/ml | – | – | – | 86% | 7.7 days | – | – |
| CC(C)(C)NC(=O)N[C@H]1CC[C@]2(CC1)OOC1(O2)C2CC3CC(C2)CC1C3 (stereo partly shown) [OZ222] | 87% | 99.76% | 7.7 days | 10.0 days | 6.3 ng/mL (≈ 16.6 nM) | 3.9 ng/mL (≈ 10.3 nM) | – | – | – | 75% | 7.0 days | – | – |
| NC(=O)NC[C@H]1CC[C@]2(CC1)OOC1(O2)C2CC3CC(C2)CC1C3 (stereo partly shown) [OZ265] | 99% | 99.67% | 13.0 days | 11.7 days | 1.6 ng/mL (≈ 4.76 nM) | 0.56 ng/mL (≈ 1.66 nM) | – | – | – | 98% | 9.7 days | – | – |
| COC(=O)c1ccc(C[C@H]2CC[C@]3(CC2)OOC2(O3)C3CC4CC(C3)CC2C4)cc1 (stereo partly shown) [OZ204] | 0/0/0% | 0/0/0% | 6.0 days | 6.0 days | >10/>10 ng/ml | >10/>10 ng/ml | – | – | – | 0/0/0% | 6.3 days | – | – |
| CCOC(=O)c1cccc([C@H]2CC[C@]3(CC2)OOC2(O3)C3CC4CC(C3)CC2C4)c1 (stereo partly shown) [OZ208] | 0% | 10% | 6.3 days | 5.7 days | 6.5 ng/mL (≈ 15.8 nM) | 6.0 ng/mL (≈ 14.5 nM) | – | – | – | 29% | 6.7 days | – | – |
| COCC(=O)N[C@H]1CC[C@]2(CC1)OOC1(O2)C2CC3CC(C2)CC1C3 (stereo partly shown) [OZ186] | 87% | 67% | 8.0 days | 8.0 days | >10/>10 ng/ml | >10/>10 ng/ml | – | – | – | 96% | 9.0 days | – | – |
| O=C(NC[C@H]1CC[C@]2(CC1)OOC1(O2)C2CC3CC(C2)CC1C3)c1cccc[n+]1[O-] (stereo partly shown) [OZ270] | 99.17% | 99.81% | 13.7 days | 11.3 days | 1.3 ng/mL (≈ 3.14 nM) | 0.85 ng/mL (≈ 2.05 nM) | – | – | – | 99.47% | 12.3 days | – | – |
| O=C(O)CON=C1CCC2(CC1)OOC1(O2)C2CC3CC(C2)CC1C3 (stereo not shown) [OZ54] | 85% | 97% | 7.0/NA/7.0 days | 7.0/NA/7.0 days | 35 ng/mL (≈ 99.6 nM) | 32 ng/mL (≈ 91.1 nM) | – | – | – | – | – | – | – |
| O=C(O)c1ccccc1C(=O)N1CCC2(CC1)OOC1(O2)C2CC3CC(C2)CC1C3 (stereo not shown) [OZ132] | 38% | 40% | 6.3 days | 6.3 days | > 10 ng/mL | 9.8 ng/mL (≈ 23.7 nM) | – | – | – | 0% | 5.7 days | – | – |
| O=C(O)c1ccc(C2(c3ccc(C(=O)O)cc3)OOC3(O2)C2CC4CC(C2)CC3C4)cc1 (stereo not shown) [OZ135] | 1% | 0% | 5.3/5.3/5.3 days | 5.3/5.3/5.3 days | >100/>100 ng/ml | >100/>100 ng/ml | – | – | – | 0% | 5.3/5.3/5.3 days | – | – |
| c1ccc(CNC[C@H]2CC[C@]3(CC2)OO[C@]2(O3)C3CC4CC(C3)CC2C4)nc1 [OZ292] | – | – | – | – | 0.26 ng/mL (≈ 0.676 nM) | 0.19 ng/mL (≈ 0.494 nM) | 46% | 74% | 7.0 days | – | – | – | – |
| O=C(NC[C@H]1CC[C@]2(CC1)OOC1(O2)C2CC3CC(C2)CC1C3)c1c[nH]cn1 (stereo partly shown) [OZ263] | 99.53% | 99.92% | 13.0 days | 11.0 days | 1.1 ng/mL (≈ 2.84 nM) | 0.84 ng/mL (≈ 2.17 nM) | – | – | – | 99.45% | 13.3 days | – | – |

Reference: patent publication US6906205B2, “Spiro and dispiro 1,2,4-trioxolane antimalarials” (Medicines for Malaria Venture MMV, priority 2002, dated 2005)
